Results from US20230131966A1, “FUNGICIDAL AMIDES” (FMC Corporation, priority 2020, published 2023).

Columns and labels:
Assay type in all cases: in vivo
Phakopsora pachyrhizi = test: Test A: Asian soybean rust control on soybean seedlings; details: for Test A disease control rating: 250 ppm, soybean seedlings, 100 = 100% disease control, 0 = no control; for Test A disease control rating (100 = 100% disease control, 0 = no disease control): rate 250 ppm, relative to the controls
[1] = system: Puccinia recondita f. sp. tritici; test: Test B: wheat leaf rust control on wheat seedlings; details: for Test B disease control rating: 250 ppm, wheat seedlings, 100 = 100% disease control, 0 = no control; for Test B disease control rating (100 = 100% disease control, 0 = no disease control): rate 250 ppm, relative to the controls
Zymoseptoria tritici = test: Test C: wheat leaf blotch control on wheat seedlings; details: for Test C disease control rating: 250 ppm, wheat seedlings, 100 = 100% disease control, 0 = no control; for Test C disease control rating (100 = 100% disease control, 0 = no disease control): rate 250 ppm, relative to the controls
Plasmopara viticola = test: Test D: grape downy mildew control on grape seedlings; details: for Test D disease control rating: 250 ppm, 100 = 100% disease control, 0 = no control; for Test D disease control rating (100 = 100% disease control, 0 = no disease control): rate 250 ppm, relative to the controls
Botrytis cinerea = test: Test E: tomato Botrytis control on tomato seedlings; details: for Test E disease control rating: 250 ppm, 100 = 100% disease control, 0 = no control; for Test E disease control rating (100 = 100% disease control, 0 = no disease control): rate 250 ppm, relative to the controls
Phytophthora infestans = test: whole plant or invertebrate; details: tomato seedlings; for Test F disease control rating: 250 ppm, 100 = 100% disease control, 0 = no control; for Test F disease control rating (100 = 100% disease control, 0 = no disease control): rate 250 ppm, relative to the controls
[2] = system: Erysiphe graminis f. sp. tritici; test: Test G: wheat powdery mildew control on wheat seedlings; details: for Test G disease control rating: 250 ppm, 100 = 100% disease control, 0 = no control; for Test G disease control rating (100 = 100% disease control, 0 = no disease control): rate 250 ppm, relative to the controls

| SMILES | Test A disease control rating (Phakopsora pachyrhizi) [%] | Test B disease control rating [1] [%] | Test C disease control rating (Zymoseptoria tritici) [%] | Test D disease control rating (Plasmopara viticola) [%] | Test E disease control rating (Botrytis cinerea) [%] | Test F disease control rating (Phytophthora infestans) [%] | Test G disease control rating [2] [%] | Test A disease control rating (100 = 100% disease control, 0 = no disease control) (Phakopsora pachyrhizi) [%] | Test B disease control rating (100 = 100% disease control, 0 = no disease control) [1] [%] | Test C disease control rating (100 = 100% disease control, 0 = no disease control) (Zymoseptoria tritici) [%] | Test D disease control rating (100 = 100% disease control, 0 = no disease control) (Plasmopara viticola) [%] | Test E disease control rating (100 = 100% disease control, 0 = no disease control) (Botrytis cinerea) [%] | Test F disease control rating (100 = 100% disease control, 0 = no disease control) (Phytophthora infestans) [%] | Test G disease control rating (100 = 100% disease control, 0 = no disease control) [2] [%] |
| --- | --- | --- | --- | --- | --- | --- | --- | --- | --- | --- | --- | --- | --- | --- |
| COc1ccnc(C(=O)NC(C)C(=O)OC(C)C2CCCCC2)c1O (mixture of isomers) [Compound 126] | 0 | 0 | 10 | 3 | 0 | 0 | 0 | – | – | – | – | – | – | – |
| C=CCOc1c(OC)ccnc1C(=O)NC(C)C(=O)OC(C)c1ccc(C2CCCCC2)cc1 (mixture of isomers) [Compound 153] | 100 | 95 | 24 | 70 | 0 | 26 | 0 | – | – | – | – | – | – | – |
| COc1ccnc(C(=O)NC(C)C(=O)OC(C)c2ccc(C3CCCCC3)cc2)c1OC(=O)C(C)C (mixture of isomers) [Compound 154] | 100 | 98 | 85 | 48 | 0 | 0 | 0 | – | – | – | – | – | – | – |
| COc1ccc(COc2c(OC)ccnc2C(=O)NC(C)C(=O)OC(C)c2ccc(C3CCCCC3)cc2)cc1 (mixture of isomers) [Compound 155] | 100 | 99 | 98 | 5 | 0 | 0 | 0 | – | – | – | – | – | – | – |
| COc1ccnc(C(=O)NC(C)C(=O)OC(C)c2ccc(C3CCCCC3)cc2)c1OS(C)(=O)=O (mixture of isomers) [Compound 156] | 89 | 68 | 13 | 7 | 0 | 17 | 0 | – | – | – | – | – | – | – |
| COc1ccnc(C(=O)NC(C)C(=O)OC(C)c2cccc(C3CC3)c2)c1OC(C)=O (mixture of isomers) [Compound 157] | 100 | 100 | 86 | 63 | 0 | 0 | 0 | – | – | – | – | – | – | – |
| COc1ccnc(C(=O)NC(C)C(=O)OC(C)c2cccc(C3CC3)c2)c1O (mixture of isomers) [Compound 158] | 100 | 100 | 73 | 94 | 0 | 0 | 0 | – | – | – | – | – | – | – |
| COc1ccnc(C(=O)NC(C)C(=O)OC(C#N)c2ccccc2)c1O (mixture of isomers) [Compound 159] | 0 | 0 | 0 | 11 | 0 | 0 | 0 | – | – | – | – | – | – | – |
| CC(NC(=O)c1cccc(NC=O)c1O)C(=O)OC(C)c1cccc(OC2CCC(C)(C)CC2)c1 (mixture of isomers) [Compound 160] | 100 | 92 | 92 | 98 | 0 | 80 | 0 | – | – | – | – | – | – | – |
| COc1ccnc(C(=O)NC(C)C(=O)OC(C)C2CCc3ccccc3O2)c1O (mixture of isomers) [Compound 164] | 100 | 99 | 99 | 0 | 0 | 0 | 0 | – | – | – | – | – | – | – |
| COc1ccnc(C(=O)NC(C)C(=O)OC(C)C2CCC(C)(C)CC2)c1OC(C)=O (mixture of isomers) [Compound 165] | 100 | 100 | 97 | 10 | 0 | 0 | 0 | – | – | – | – | – | – | – |
| COc1ccnc(C(=O)NC(C)C(=O)OC(C)c2ncc(C(F)(F)F)cc2Cl)c1O (mixture of isomers) [Compound 166] | 97 | 68 | 0 | 15 | 0 | 0 | 0 | – | – | – | – | – | – | – |
| COc1ccnc(C(=O)NC(C)C(=O)OC(C)C2CC(C)(C)CC(C)(C)C2)c1OC(C)=O (mixture of isomers) [Compound 171] | 100 | 100 | 80 | 49 | 0 | 53 | 0 | – | – | – | – | – | – | – |
| COc1ccnc(C(=O)NC(C)C(=O)OC(C)C2CCC(C)(C)CC2)c1O (mixture of isomers) [Compound 173] | 100 | 98 | 66 | 8 | 0 | 0 | 0 | – | – | – | – | – | – | – |
| COc1ccnc(C(=O)NC(C)C(=O)OC(C)C2CCC(C(C)(C)C)CC2)c1O (mixture of isomers) [Compound 176] | 99 | 89 | 57 | 14 | 0 | 0 | 0 | – | – | – | – | – | – | – |
| COc1ccnc(C(=O)NC(C)C(=O)OC(C)C2CCC(C(F)(F)F)CC2)c1OC(C)=O (mixture of isomers) [Compound 180] | 100 | 99 | 95 | 51 | 0 | 26 | 0 | – | – | – | – | – | – | – |
| COc1ccnc(C(=O)NC(C)C(=O)OC(C)C2CCC(C(C)(C)C)CC2)c1OC(C)=O (mixture of isomers) [Compound 181] | 100 | 100 | 100 | 80 | 0 | 26 | 0 | – | – | – | – | – | – | – |
| COc1ccnc(C(=O)NC(C)C(=O)OC(C)C2CCCc3ccccc32)c1OC(C)=O (mixture of isomers) [Compound 185] | 100 | 100 | 100 | 61 | 0 | 0 | 0 | – | – | – | – | – | – | – |
| COc1ccnc(C(=O)NC(C)C(=O)OC(C)C2Cc3ccccc3O2)c1OC(C)=O (mixture of isomers) [Compound 186] | 94 | 100 | 83 | 14 | 0 | 0 | 0 | – | – | – | – | – | – | – |
| COc1ccnc(C(=O)NC(C)C(=O)OC(C)C2Cc3ccccc3O2)c1O (mixture of isomers) [Compound 187] | – | – | – | – | – | – | – | 97 | 100 | 96 | 6 | 0 | 0 | 0 |
| COc1ccnc(C(=O)NC(C)C(=O)OC(C)C2COc3ccccc32)c1OC(C)=O (mixture of isomers) [Compound 191] | – | – | – | – | – | – | – | 100 | 96 | 89 | 26 | 0 | 0 | 21 |
| COc1ccnc(C(=O)N(C)C(C)C(=O)OC(C)c2ccc(C3CCCCC3)cc2)c1O (mixture of isomers) [Compound 193] | – | – | – | – | – | – | – | 87 | 74 | 3 | 74 | 0 | 0 | 0 |
